# Experiments:
# [1] = biological target: T1, CpLIP2 lipase (Candida parapsilosis, UniProt Q8NIN8); test: Fluorescence resonance energy transfer between CpLIP2 and flavonols (Förster theory); format: binding; on R0 (Förster distance): values in Å; on r (distance between acceptor and donor): values in Å
# Description: Fluorescence emission spectra of CpLIP2 lipase overlap the UV absorption spectrum of each flavonol studied, that may induce fluorescence resonance energy transfer (FRET) governed by the binding distance r between the protein behaving as energy donor and the flavonol energy acceptor. The binding distance r can be calculated via Förster theory with the following Equations (10) and (11):(10) E=1−F/ F0=R06/ R06+r^6 where E is the energy transfer efficiency, which is the photons fraction absorbed and transferred by the donor to the acceptor, F and F0 are the fluorescence intensities of donor (CpLIP2) in the presence or absence of acceptor (flavonol) at the same concentrations. The parameter r is the distance between acceptor and donor, and R0 is the Förster distance, which is the critical energy transfer distance when 50% of the excitation energy is transferred from the donor to the acceptor. […] The value of R0 ranges from 20–90 Å for biological macromolecules.
# [2] = biological target: T1, CpLIP2 lipase; test: Quenching of CpLIP2 intrinsic tryptophan fluorescence by flavonols (Stern–Volmer, Lehrer, van't Hoff analysis); format: binding; details: for KSV (Stern–Volmer quenching constant): CpLIP2 2.5 µM, pH 7.0, flavonol 2.5–25 µM (GAL 2.5–17.5 µM); for Kq (bimolecular quenching constant): Kq = KSV/τ0, τ0 1.59 ns; for KSV (accessible), Stern–Volmer quenching constant of the exposed W residues / fa (fraction of accessible W residues to the quencher): Lehrer equation; for ΔG (free energy change): ΔG = ΔH − TΔS; for Kd: Kd (dissociation constant)
# Description: The fluorescence quenching spectra of CpLIP2 lipase submitted to increasing concentrations of GAL, KAE, QUE and MYR are shown in Figure 3. A remarkable quenching of the CpLIP2 fluorescence emission was observed. […] The fluorescence quenching is usually described by the linear Stern–Volmer Equations (2) and (3):(2) F0/F = 1 + Ksv [Q] = 1 + Kqτ0 [Q] (3) Kq=Ksv/τ0 where F0 and F are the intrinsic fluorescence intensities of CpLIP2 lipase (fluorophore) in absence or presence of quencher (flavonol), respectively. Kq is the bimolecular quenching constant, τ0 is the lifetime of the fluorophore in the absence of the quencher, [Q] is the concentration of the quencher, and KSV is the Stern–Volmer quenching constant.
# The mechanism of quenching, occurring between CpLIP2 lipase and flavonols, was characterized by determining the values of Kq and the thermodynamic parameters by varying the temperature. […] In both cases, the bimolecular quenching constant Kq can be calculated by the ratio between KSV and τ0, itself determined at 1.59 ns for Human Pancreatic Lipase.
# The inaccessible or buried residues are responsible for the remaining fluorescence, which is probably independent of the quencher concentration. […] An up-down curvature towards the x-axis has been shown for the four flavonols (Figure 4), indicating the presence of two populations of fluorophores, part of which would not be accessible. That means that some W residues are buried inside the lipase structure and that other residues are exposed to the solvent. Therefore, data were analyzed through the Lehrer equation, also known as the modified (or non-linear) Stern–Volmer Equation (4):(4) F0/ F0−F = 1/ fa Ksv 1/ [Q] +1/ fa
# For static quenching, the equilibrium between free and bound CpLIP2 lipase, when the ligand molecules bind independently to equivalent sites of macromolecules, can be described by the following Equation (5):(5) log10F0−F/F=nlog10[Q]+log10Ka where Ka is the binding constant and n the number of binding sites per CpLIP2 molecule.
# The results were determined for all flavonols tested at different temperatures from the plots of log10 F0 − F/F versus log10 [Q] and listed in Table 2. The plots show a linear relationship from which the slope equal to n and intercept on y-axis equal to log10 Ka. For the four flavonols, the Ka values increased when the temperatures increased. In addition, the n values were less than 1.0 in all cases and increased according to the temperature. […] Values of the dissociation constant of complexes were deduced from the Stern–Volmer Equation (6) and (7), for which Kd is expressed as the inverse of fa Ksv product. (6) F0/ F0−F= Kd 1/ [Q] +1 (7) Kd= 1/fa Ksv
# Thermodynamic parameters were calculated to determine the type of binding forces that contribute in the CpLIP2 lipase–flavonol interactions. […] Both the enthalpy (ΔH) and entropy changes (ΔS) can be estimated from the following van′t Hoff Equation (8):(8) Ln Ka = − ΔH /RT + ΔS /R
# The values of Gibbs binding free energy change (ΔG) are calculated from the following Equation (9):(9) ΔG= ΔH − TΔS
# To fill up the volume of 300 µL by well, 190 µL of sodium phosphate buffer solution (75 mM, pH 7.0) was added to each well to obtain final concentration at 50 mM. Then, 100 µL of ethanol absolute–water ultrapure (2:8, v/v) solution was added to obtain a final amount of ethanol […] in the well of 300 µL. […] The final concentration of ethanol during the experiments never exceeded 0.07% (v/v). The last step was to add 10 µL of lipase after to have optimized the final concentration of CpLIP2 equal to 2.5 µM for all our assays, giving the optimal fluorescence intensity for all measurements. The measurement of intrinsic fluorescence started after mechanical shaking for 30 s inside the multi-plate reader. […]
# T1 sequence (Q8NIN8 entry or part of it): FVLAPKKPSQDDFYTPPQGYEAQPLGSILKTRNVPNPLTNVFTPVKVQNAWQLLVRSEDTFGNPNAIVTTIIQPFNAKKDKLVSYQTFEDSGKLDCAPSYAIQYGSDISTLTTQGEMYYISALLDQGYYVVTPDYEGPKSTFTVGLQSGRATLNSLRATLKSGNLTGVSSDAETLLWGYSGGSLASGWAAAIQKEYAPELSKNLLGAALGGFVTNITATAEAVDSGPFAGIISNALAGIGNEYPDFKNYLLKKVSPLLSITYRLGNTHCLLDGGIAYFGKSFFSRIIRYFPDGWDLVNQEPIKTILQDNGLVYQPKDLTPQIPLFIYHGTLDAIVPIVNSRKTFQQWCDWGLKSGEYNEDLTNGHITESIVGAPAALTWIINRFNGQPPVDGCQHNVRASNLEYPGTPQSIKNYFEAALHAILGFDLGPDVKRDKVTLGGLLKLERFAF
smiles,measurement,setting,value
"O=c1c(O)c(-c2ccc(O)c(O)c2)oc2cc(O)cc(O)c12 [QUE, quercetin]",percentage of transfer efficiency,[1],6%
same,E (energy transfer efficiency),"[1]; 2.5 µM, 308 K, pH 7.0",0.06
same,J (overlap integral),"[1]; 2.5 µM, 308 K, pH 7.0",12 × 10^14 nm^4·cm^−1·M^−1
same,R0 (Förster distance),"[1]; 2.5 µM, 308 K, pH 7.0",36.9 Å
same,r (distance between acceptor and donor),"[1]; 2.5 µM, 308 K, pH 7.0",58.7 Å
same,r/R0,"[1]; 2.5 µM, 308 K, pH 7.0",1.6
same,Ka (association constant),[2]; 298 K,2034 ± 2 L/mol
same,n (number of binding sites),[2]; 298 K,0.78 ± 0.06
same,KSV (Stern–Volmer quenching constant),[2]; 298 K,1.8 ± 0.1 × 10^4 L·mol^−1
same,Kq (bimolecular quenching constant),[2]; 298 K,1.1e+13 M⁻¹ s⁻¹
same,"KSV (accessible), Stern–Volmer quenching constant of the exposed W residues",[2]; 298 K,70000 L/mol
same,fa (fraction of accessible W residues to the quencher),[2]; 298 K,0.54
same,ΔG (free energy change),[2]; 298 K,-10.1 kcal/mol
same,Ka (association constant),[2]; 308 K,1824 ± 9 L/mol
same,n (number of binding sites),[2]; 308 K,0.77 ± 0.05
same,KSV (Stern–Volmer quenching constant),[2]; 308 K,1.6 ± 0.6 × 10^4 L·mol^−1
same,Kq (bimolecular quenching constant),[2]; 308 K,1e+13 M⁻¹ s⁻¹
same,"KSV (accessible), Stern–Volmer quenching constant of the exposed W residues",[2]; 308 K,80000 L/mol
same,fa (fraction of accessible W residues to the quencher),[2]; 308 K,0.52
same,ΔG (free energy change),[2]; 308 K,-10.4 kcal/mol
same,Ka (association constant),[2]; 318 K,3041 ± 2 L/mol
same,n (number of binding sites),[2]; 318 K,0.81 ± 0.07
same,KSV (Stern–Volmer quenching constant),[2]; 318 K,1.6 ± 0.6 × 10^4 L·mol^−1
same,Kq (bimolecular quenching constant),[2]; 318 K,1e+13 M⁻¹ s⁻¹
same,"KSV (accessible), Stern–Volmer quenching constant of the exposed W residues",[2]; 318 K,70000 L/mol
same,fa (fraction of accessible W residues to the quencher),[2]; 318 K,0.55
same,ΔG (free energy change),[2]; 318 K,-10.8 kcal/mol
same,Ka (association constant),[2]; 328 K,4616 ± 3 L/mol
same,n (number of binding sites),[2]; 328 K,0.85 ± 0.11
same,KSV (Stern–Volmer quenching constant),[2]; 328 K,2.0 ± 0.7 × 10^4 L·mol^−1
same,Kq (bimolecular quenching constant),[2]; 328 K,1.3e+13 M⁻¹ s⁻¹
same,"KSV (accessible), Stern–Volmer quenching constant of the exposed W residues",[2]; 328 K,50000 L/mol
same,fa (fraction of accessible W residues to the quencher),[2]; 328 K,0.69
same,ΔG (free energy change),[2]; 328 K,-11.1 kcal/mol
same,Kd,[2]; 298 K,27 ± 6 µM
same,Kd,[2]; 308 K,24 ± 10 µM
same,Kd,[2]; 318 K,25 ± 10 µM
same,Kd,[2]; 328 K,31 ± 13 µM
same,fa (fraction of accessible W residues),[2]; across temperatures,0.55
same,order of magnitude of Kq,[2]; all temperatures of Table 1,~10^13 L mol^−1 s^−1
same,ΔS (entropy changes),"[2]; van't Hoff plot, 298–328 K",0.14 kJ·mol^−1·K^−1

# — paper PMC6719172, “Inhibition of CpLIP2 Lipase Hydrolytic Activity by Four Flavonols (Galangin, Kaempferol, Quercetin, Myricetin) Compared to Orlistat and Their Binding Mechanisms Studied by Quenching of Fluorescence” (Molecules, 2019)
